# Experimental data: publication PMC5654082 (Malaria Journal, 2017)
# Like-named read-outs stand apart in the source and are kept apart here. Marks after values point to notes of the source that are not given here.
# Assays:
# [1] = Maximum plasma concentration from in vivo pharmacokinetic studies after therapeutic dosing; conditions: human, the literature Cmax (ng/mL) of Table 2 expressed in µM
# Source text: As Cmax the (geometric) mean or median maximum plasma concentrations obtained from previous in vivo pharmacokinetic studies after therapeutic dosing was used.
# OCT1 [2] = system: OCT1; parameters: method as in PMID 18788725; conditions: 100 µM; ASP as substrate; cited from earlier work
# OCT2 [3] = system: OCT2; parameters: method as in PMID 16263091; conditions: stably transfected HEK293 cells; read-out: IC50 of [3H]MPP+ uptake, OCT2; cited from earlier work
# [4] = Thai patients with falciparum malaria; cited from earlier work
# OCT1 [5] = system: OCT1; parameters: method as in PMID 16263091; conditions: stably transfected HEK293 cells; read-out: IC50 of [3H]MPP+ uptake, OCT1; cited from earlier work
# [6] = adult patients with uncomplicated falciparum malaria; (geometric) mean or median; cited from earlier work
# OCT2 [7] = system: OCT2; parameters: method as in PMID 21599003; conditions: 20 µM; ASP as substrate; cited from earlier work
smiles,measurement,setting,value
"C=C[C@H]1C[N@@]2CC[C@H]1C[C@H]2[C@H](O)c1ccnc2ccc(OC)cc12 [Quinine, quinine]",Cmax,[1],35 µM
same,Inhibition of OCT1,OCT1 [2],60%
same,IC50,OCT2 [3],23 µM
same,Unbound fraction,[4],0.11^g [36]
same,IC50,OCT1 [5],13 µM
same,Cmax,[6],11430^f [50] ng/mL
same,Inhibition of OCT2,OCT2 [7],72%
